Experimental data: PubChem BioAssay AID248 (DTP/NCI, 2004)
Where “and” joins values, the source holds several entries; their conditions need not be identical. Equal values may be shown once. Inconclusive results and toxic doses are left out. Rule as the data show it: active = T/C of 150% or more; inactive = T/C below 125%. Peptide text beside a SMILES is read from it. * marks the point of attachment. For = O=C*

Test system: L1210 leukemia ip in BDF1 mice, survival T/C
Test: NCI In Vivo Anticancer Drug Screen. Data for tumor model L1210 Leukemia (intraperitoneal) in B6D2F1 (BDF1) mice
Conditions: endpoint: mean survival time, higher = longer survival
Method in brief: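 Read-out is survival time, reported as the treated-group measurement over the vehicle-control measurement.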

[1] = dose: 100.0 mg/kg/injection, schedule: Q04DX003 (ip), vehicle: saline
[2] = dose: 200.0 mg/kg/injection, schedule: Q04DX003 (ip), vehicle: saline
[3] = dose: 400.0 mg/kg/injection, schedule: Q04DX003 (ip), vehicle: saline
[4] = dose: 100.0 mg/kg/injection, schedule: Q01DX009 (ip), vehicle: Klucel (hydroxypropylcellulose) (HPC)
[5] = dose: 100.0 mg/kg/injection, schedule: Q04DX003 (ip), vehicle: Klucel (hydroxypropylcellulose) (HPC)
[6] = dose: 200.0 mg/kg/injection, schedule: Q01DX009 (ip), vehicle: Klucel (hydroxypropylcellulose) (HPC)
[7] = dose: 200.0 mg/kg/injection, schedule: Q04DX003 (ip), vehicle: Klucel (hydroxypropylcellulose) (HPC)
[8] = dose: 100.0 mg/kg/injection, schedule: Q01DX009 (ip), vehicle: saline with Tween-80
[9] = dose: 100.0 mg/kg/injection, schedule: Q04DX003 (ip), vehicle: saline with Tween-80
[10] = dose: 200.0 mg/kg/injection, schedule: Q01DX009 (ip), vehicle: saline with Tween-80
[11] = dose: 200.0 mg/kg/injection, schedule: Q04DX003 (ip), vehicle: saline with Tween-80
[12] = dose: 400.0 mg/kg/injection, schedule: Q01DX009 (ip), vehicle: saline with Tween-80
[13] = dose: 400.0 mg/kg/injection, schedule: Q04DX003 (ip), vehicle: saline with Tween-80
[14] = dose: 100.0 mg/kg/injection, schedule: Q01DX001 (ip), vehicle: saline
[15] = dose: 200.0 mg/kg/injection, schedule: Q01DX001 (ip), vehicle: saline
[16] = dose: 400.0 mg/kg/injection, schedule: Q01DX001 (ip), vehicle: saline

Measured: T/C

CC1=C(/C=C/C(C)=N/NC(N)=O)C(C)(C)CCC1
inactive: dose: 100.0 mg/kg/injection, schedule: Q01DX009 (ip), vehicle: saline 100 % of control | [1] 94 % of control | dose: 200.0 mg/kg/injection, schedule: Q01DX009 (ip), vehicle: saline 100 % of control | [2] 102 % of control | [3] 96 % of control

Cc1c(Cl)cc(C(C)C)c(O)c1CN1CCCCC1
inactive: dose: 222.0 mg/kg/injection, schedule: Q01DX Z (ip), vehicle: saline 92 % of control | dose: 333.0 mg/kg/injection, schedule: Q01DX Z (ip), vehicle: saline 91 % of control | dose: 500.0 mg/kg/injection, schedule: Q01DX Z (ip), vehicle: saline 91 % of control

O=C(Nc1ccc(Cl)cc1)c1ccccc1
inactive: dose: 50.0 mg/kg/injection, schedule: Q01DX009 (ip), vehicle: Klucel (hydroxypropylcellulose) (HPC) 105 % of control | [4] 100 % of control | [5] 100 % of control | [6] 93 % of control | [7] 101 % of control | dose: 400.0 mg/kg/injection, schedule: Q04DX003 (ip), vehicle: Klucel (hydroxypropylcellulose) (HPC) 91 % of control

Oc1ccc(/C=N/N2CCOCC2)c(O)c1
inactive: dose: 100.0 mg/kg/injection, schedule: Q01DX001 (ip), vehicle: carboxymethylcellulose (CMC) 100 % of control and 110 % of control | dose: 100.0 mg/kg/injection, schedule: Q01DX009 (ip), vehicle: carboxymethylcellulose (CMC) 97 % of control | dose: 100.0 mg/kg/injection, schedule: Q04DX002 (ip), vehicle: carboxymethylcellulose (CMC) 92 % of control and 89 % of control | dose: 100.0 mg/kg/injection, schedule: Q04DX003 (ip), vehicle: carboxymethylcellulose (CMC) 95 % of control and 103 % of control | dose: 200.0 mg/kg/injection, schedule: Q01DX001 (ip), vehicle: carboxymethylcellulose (CMC) 98 % of control and 110 % of control | dose: 200.0 mg/kg/injection, schedule: Q01DX009 (ip), vehicle: carboxymethylcellulose (CMC) 95 % of control | dose: 200.0 mg/kg/injection, schedule: Q04DX002 (ip), vehicle: carboxymethylcellulose (CMC) 96 % of control and 103 % of control | dose: 200.0 mg/kg/injection, schedule: Q04DX003 (ip), vehicle: carboxymethylcellulose (CMC) 95 % of control and 90 % of control | dose: 400.0 mg/kg/injection, schedule: Q01DX001 (ip), vehicle: carboxymethylcellulose (CMC) 98 % of control and 110 % of control | dose: 400.0 mg/kg/injection, schedule: Q01DX009 (ip), vehicle: carboxymethylcellulose (CMC) 88 % of control | dose: 400.0 mg/kg/injection, schedule: Q04DX002 (ip), vehicle: carboxymethylcellulose (CMC) 95 % of control and 86 % of control | dose: 400.0 mg/kg/injection, schedule: Q04DX003 (ip), vehicle: carboxymethylcellulose (CMC) 95 % of control and 87 % of control

CN(C)C(=O)Sc1ccc(C(=O)O)cc1
inactive: dose: 100.0 mg/kg/injection, schedule: Q04DX003 (ip), vehicle: gum acacia 109 % of control | dose: 200.0 mg/kg/injection, schedule: Q04DX003 (ip), vehicle: gum acacia 98 % of control | dose: 400.0 mg/kg/injection, schedule: Q04DX003 (ip), vehicle: gum acacia 113 % of control

COc1cc(C=Nc2ccccc2)ccc1OC(=O)c1ccccc1
inactive: dose: 100.0 mg/kg/injection, schedule: Q04DX002 (ip), vehicle: gum acacia 103 % of control | dose: 200.0 mg/kg/injection, schedule: Q04DX002 (ip), vehicle: gum acacia 95 % of control | dose: 400.0 mg/kg/injection, schedule: Q04DX002 (ip), vehicle: gum acacia 88 % of control

CN(C)CCCNC(=O)Nc1ccccc1
inactive: [4] 100 % of control | [5] 120 % of control | [6] 98 % of control | [7] 93 % of control

Cc1ccc(NC(=O)Nc2ccccc2)cc1Cl
inactive: dose: 100.0 mg/kg/injection, schedule: Q01DX009 (sc), vehicle: olive oil, sesame oil, peanut oil 100 % of control | dose: 100.0 mg/kg/injection, schedule: Q04DX003 (sc), vehicle: olive oil, sesame oil, peanut oil 100 % of control | dose: 200.0 mg/kg/injection, schedule: Q01DX009 (sc), vehicle: olive oil, sesame oil, peanut oil 96 % of control | dose: 200.0 mg/kg/injection, schedule: Q04DX003 (sc), vehicle: olive oil, sesame oil, peanut oil 99 % of control | dose: 400.0 mg/kg/injection, schedule: Q01DX009 (sc), vehicle: olive oil, sesame oil, peanut oil 91 % of control | dose: 400.0 mg/kg/injection, schedule: Q04DX003 (sc), vehicle: olive oil, sesame oil, peanut oil 100 % of control

COC(=O)C(CC(C)C)NC(=O)C(Cc1ccc(O)cc1)NC=O (stereo not drawn) (For-Tyr-Leu-OMe; configuration not given here)
inactive: [8] 94 % of control | [9] 110 % of control | [10] 95 % of control | [11] 102 % of control | [12] 92 % of control | [13] 96 % of control

CC(C)=NNCCO
inactive: dose: 12.5 mg/kg/injection, schedule: Q01DX001 (ip), vehicle: saline 103 % of control | dose: 25.0 mg/kg/injection, schedule: Q01DX001 (ip), vehicle: saline 103 % of control | dose: 50.0 mg/kg/injection, schedule: Q01DX001 (ip), vehicle: saline 100 % of control

Oc1ccc(Nc2ccccc2)cc1
inactive: [14] 92 % of control | [1] 101 % of control | [15] 110 % of control | [2] 101 % of control | [16] 105 % of control | [3] 95 % of control

CCCC(=O)OC(OC(=O)CCC)c1cccc(OC(=O)CC)c1
inactive: dose: 222.0 mg/kg/injection, schedule: Q01DX Z (ip), vehicle: methylcellulose (MC) 96 % of control | dose: 333.0 mg/kg/injection, schedule: Q01DX Z (ip), vehicle: methylcellulose (MC) 104 % of control | dose: 500.0 mg/kg/injection, schedule: Q01DX Z (ip), vehicle: methylcellulose (MC) 105 % of control

COC(=O)c1cc(C2OCC3OC(C)(C)OC32)[nH]n1 (configuration not stated)
inactive: dose: 100.0 mg/kg/injection, schedule: Q01DX005 (ip), vehicle: saline 96 % of control | dose: 200.0 mg/kg/injection, schedule: Q01DX005 (ip), vehicle: saline 100 % of control

N#Cc1cccc[n+]1Cc1ccc([N+](=O)[O-])cc1
inactive: [9] 97 % of control

Clc1ccc(C=NCCN=Cc2ccc(Cl)c(Cl)c2)cc1Cl
inactive: dose: 25.0 mg/kg/injection, schedule: Q01DX009 (ip), vehicle: saline with Tween-80 92 % of control | dose: 50.0 mg/kg/injection, schedule: Q01DX009 (ip), vehicle: saline with Tween-80 90 % of control | [8] 103 % of control | [9] 91 % of control | [10] 98 % of control | [11] 91 % of control | [12] 101 % of control | [13] 95 % of control

CC(C)(/C=N/NC(N)=O)c1ccccc1
inactive: dose: 50.0 mg/kg/injection, schedule: Q01DX001 (ip), vehicle: Klucel (hydroxypropylcellulose) (HPC) 96 % of control | dose: 100.0 mg/kg/injection, schedule: Q01DX001 (ip), vehicle: Klucel (hydroxypropylcellulose) (HPC) 102 % of control | dose: 200.0 mg/kg/injection, schedule: Q01DX001 (ip), vehicle: Klucel (hydroxypropylcellulose) (HPC) 96 % of control

O=C(Nc1nccs1)C(F)(F)F
inactive: [14] 109 % of control | [15] 109 % of control | [16] 102 % of control
